These results are taken from a melting point compilation (Tetko et al.; mined from patent text by program, amines drawn as free bases though some values may be those of a salt).

Some results are limits rather than exact numbers.

With `COc1nc2ccccc2cc1NC(=O)N1CCN(c2cccc(Cl)c2)CC1`, the melting point (usually the temperature of the solid-liquid transition) is 97 to 98 °C. Then `Cc1cccc(Oc2ccc(Cl)cc2C(=O)O)c1`, with 124 to 125 °C; and `CS(=O)(=O)C(=C1CN(C(c2ccccc2)c2ccccc2)C1)c1cc(C(F)(F)F)cc(C(F)(F)F)c1`, with 192 °C; and `O=C1c2ccccc2C(=O)N1CC(O)c1cnc(-c2ccccc2)nc1-c1ccccc1` (configuration not stated), with 149 to 159 °C. Then `COc1cc(/C=C/C(=O)c2ccc(NS(C)(=O)=O)cc2)cc(-c2cccs2)c1OC`, with 71 to 75 °C. On to `COc1ccc(S(=O)(=O)N2CCc3cccc(-c4ccco4)c32)cc1`, for which the melting point was 177 to 178 °C. Next, `CCCCC(Cc1cc(C(C)(C)C)c(O)c(C(C)(C)C)c1)(C(=O)OC1CC(C)(C)N(OC)C(C)(C)C1)C(=O)OC1CC(C)(C)N(OC)C(C)(C)C1`: 111 to 113 °C; `O=C(NC1c2cc(NC(=O)N3CCCC3)ccc2CCC1O)c1ccc(Cl)c(Cl)c1` (configuration not stated): 206 to 208 °C. Then `Clc1ccc(-n2cc(-c3n[nH]c4ccccc34)nn2)cn1`, with 272 to 280 °C. Then `CCOc1nc(C(F)(F)F)cc(=O)n1-c1cc(OCCON=C(C)C)c(Br)cc1F`, with 131 to 132 °C. In the case of `COc1ccccc1-c1ccc(C[C@H](NC(=O)c2c(Cl)cccc2Cl)C(=O)O)cc1OC`, the melting point lay in the range of 100 to 102 °C.

In turn, `O=C(C=Cc1ccc(Br)cc1)c1cc(Br)ccc1[N+](=O)[O-]` displayed a melting point of 169 to 190 °C. Next, `COC(=O)[C@@H]1Cc2cc(OC)c(O)cc2C(=O)N1`: 280 to 285 °C; `Cc1cc(-n2nn[nH]c2=O)c(Cl)cc1Cl`: 135 to 137 °C. Then `OCCC1(c2ccc(Cl)c(Cl)c2)CCCNC1` (configuration not stated), with 122 °C; and `CCC(C)(C)n1nnnc1S`, with 104 to 106 °C; and `Clc1ccc(CCC(Cn2ccnc2)Sc2c(Cl)cc(Cl)cc2Cl)cc1` (configuration not stated), with 132 °C. Then `CC(C(O)C=Cc1ccc(Cl)cc1)n1cncn1` (configuration not stated), with 117 to 118 °C; and `O=C1CCN(CC(c2ccccc2)c2ccccc2)CC1`, with 140 to 142 °C. The compound `COc1cc2ncnc(NC3=CC(=O)C(N(C)C)=CC3=O)c2cc1OC` displayed a melting point of 245 to 250 °C. Next, `COc1cc(N)c(Cl)cc1C(=O)CCC1CCNCC1`: 138 to 140 °C; `CC(=O)Nc1ccc(C(=O)N2CCOCC2)cc1N`: 198 to 200 °C. Turning to `Cc1cc(CCCCCCCOc2ccc(C(=O)NN)cc2)on1`, the melting point lay within 121 to 122 °C. For the compound `CCOC(=O)COc1ccc(Cn2c(-c3ccc(OCc4ccccc4)cc3)c(C)c3cc(OCc4ccccc4)ccc32)cc1OC`, the melting point lay in the range of 120 to 123 °C.

`COC(=O)Cc1ccc(OCCN2CCN(c3cc(Cl)nnc3Cl)CC2)cc1` gave a melting point of 84 to 86 °C. Next, `COc1cc(Nc2c(C#N)cnc3cc(Br)ccc23)c(Cl)cc1F`: 200 to 202 °C; `Cc1ccc(S(=O)(=O)OCC2CCN(C(c3ccccc3)(c3ccccc3)c3ccccc3)CC2)cc1`: 192 °C; `Cc1cccc(C(=O)c2[nH]c3cc(Cl)ccc3c2CC(=O)O)c1`: 182 to 184 °C. With `Clc1ccc([C@H]2CC[C@H](CBr)CC2)cc1`, the melting point was in the range of 36 to 38 °C. Next, `N#CC(C(N)=O)c1ccccc1` (configuration not stated): 148 to 150 °C. Compound `Cc1oc(-c2ccccc2)nc1COc1cccc(COc2cncc(CC(=O)O)c2)c1` showed a melting point of 158 to 159 °C.

`CCOC(=O)C1=C(C)Nc2ncnc(OC(C)C)c2C1c1ccccc1C(F)(F)F` (configuration not stated) displayed a melting point of 155 °C. Next, `CCCCCCCNC(=O)Nc1ccccc1CNCc1cc(C(C)(C)C)c(O)c(C(C)(C)C)c1`: 135 to 138 °C. `CCNC(=O)NS(=O)(=O)c1cc2c(cc1OC)OCCC2CNC(=O)c1cc(Cl)ccc1OC` (configuration not stated) showed a melting point of 211 to 213 °C.

The compound `OCC1OC(n2cnc3c(NCC(c4ccc(F)cc4)c4ccc(F)cc4)ncnc32)C(O)C1O` (configuration not stated) yielded a melting point of 75 to 80 °C. Then `COc1ccc([N+](=O)[O-])c(N(C)C(=O)OC(C)(C)C)c1`, with 122 to 124 °C; and `O=C1OCCN1c1ccc([N+](=O)[O-])c(C(F)(F)F)c1`, with 112 to 113 °C. With `CC(C)(C)c1cc(N2CCN(C(=O)c3ccc(N)cc3)C2=O)cc(C(C)(C)C)c1O`, the melting point is over 260 °C. `Cn1c2cc(C(O)CO)ccc2c2c3c(c(-c4ccccc4Cl)cc21)C(=O)NC3=O` (configuration not stated) yielded a melting point of 252 to 255 °C.

For `CCCOC(Cc1ccc(OCCc2nc(-c3ccccc3)oc2C)c2ccsc12)C(=O)O` (configuration not stated), the melting point was in the range of 106 to 109 °C. For the compound `CC(C)(C)CNN(CC(C)(C)C)S(=O)(=O)c1nc(Cl)cs1`, the melting point was determined as 157 °C. Next, `ON=Cc1cc(Br)ccc1Cl`: 126 to 128 °C; `O=c1[nH]c2cccc(C3CCCNC3)c2[nH]1` (configuration not stated): 260 °C; `O=C(NO)c1ccc(CNC(=O)c2[nH]c(-c3ccccc3)cc2-c2ccc(Br)cc2)cc1`: 174 to 176 °C.

Take `O=C1c2ccccc2C(=O)N1OCc1nc(=O)c(O)c[nH]1`: the melting point lay within 174 to 175 °C. Next, `CC(C)(C)OC(=O)C(C1NC(C(=O)OCc2ccccc2)C2(CCCCC2)S1)N1C(=O)c2ccccc2C1=O` (configuration not stated): 165 to 166 °C; `N[C@@H](Cc1cc(F)cc(F)c1)[C@H](O)CO`: 93 °C.

`O=C1CCc2cc(OCc3ccccc3)ccc21` gave a melting point of 105 to 106 °C. Then `CCOC(=O)CC12CC1CCCC2=O` (configuration not stated), with 154 to 156 °C; and `COc1ccccc1Oc1c(NS(=O)(=O)c2c(C)noc2C)nc(N2CCOCC2)nc1OCCO`, with 144 to 147 °C; and `COC(=O)C1Cc2c([nH]c3ccccc23)C(C)N1` (configuration not stated), with 152 to 154 °C. Next, `COc1ccc(-c2cc(=O)n(CC(C)C)nc2-c2ccc(OC)c(F)c2)cc1`: 86.8 to 87.4 °C; `CCOC(=O)CCCCC(NS(=O)(=O)c1ccc(F)cc1)c1ccc2ccccc2c1` (configuration not stated): 91 to 93 °C; `COc1cc(C(=O)c2ccc([N+](=O)[O-])cc2)c(CC(=O)O)cc1Br`: 189 to 192 °C. Next, `O=C(Nc1ccc(-n2nc(C(F)(F)F)cc2C(F)(F)F)cc1)c1cc(Br)c(Br)s1`: 142 to 144 °C. Regarding `CCC(O)(CCC(N)=O)c1ccc(Cl)c(Cl)c1` (configuration not stated), the melting point was in the range of 106 to 107 °C. Next, `CSc1nn2c(N)cc(C)nc2c1S(=O)(=O)c1ccc(C)cc1`: over 230 °C; `Nc1ccc(C(=O)C(O)c2ccccc2)cc1` (configuration not stated): 199 to 203 °C. The compound `O=C(CCC(O)c1ccccc1)NC1CCCCC1` (configuration not stated) showed a melting point of 91 to 93 °C.

In turn, `N#Cc1ccc2c(c1)C=CCCO2` yielded a melting point of 69 to 71 °C. Next, `O=C1C(=O)c2ccccc2C2=C1SCC1(CCN(CC(O)COc3ccc(Cl)cc3)CC1)O2` (configuration not stated): 138 to 140 °C; `CCOC(=O)CC[C@H](NC(=O)c1ccc(CCC2CNc3nc(NC(=O)C(C)(C)C)[nH]c(=O)c3C2)s1)C(=O)OCC` (some centres not stated): 169 to 170 °C. Then `Cc1ccc(CNC(=O)C2=C3N(CCC2=O)c2ccccc2N3CCN(C)C)cc1`, with 120 to 122 °C; and `CN1CCN(c2cnc([N+](=O)[O-])c(Cl)n2)CC1`, with 50 °C; and `O=C(c1cccc(F)c1)N1CC2CC2(c2ccc(Cl)cc2)C1` (configuration not stated), with 70 to 73 °C. Next, `CC(=O)NNc1ccnc2c(NC(=O)c3c(Cl)cccc3Cl)cc(C(F)(F)F)cc12`: 174 to 178 °C; `O=c1[nH]ncc2[nH]c(-c3ccc(OC(F)F)c(OC4CC4)c3)c(CC3CC3)c12`: 204 to 206 °C; `O=C1C(=Cc2cccc(Cl)c2)SC(c2cccc(Cl)c2)N1CCCN1CCCCC1` (configuration not stated): 137 to 139 °C. As to `Cc1ccccc1NC(=NC#N)NC(NC(=O)CCCc1ccccc1)C(C)(C)C` (configuration not stated), the melting point is 153 to 154 °C.

As to `O=C1NCc2c(cccc2Oc2ccccc2)N1`, the melting point is 278 to 280 °C. In turn, `CC(Cc1c[nH]c2ccccc12)(NC(=O)OC1C2CC3CC(C2)CC1C3)C(=O)O` (configuration not stated) had a melting point of 210 to 215 °C. As for `CCc1ccc2nc(Cl)nc(Nc3ccccc3C)c2c1`, the melting point was in the range of 177 to 179 °C.

With `CC(C)c1cc(C#N)cc(C(=O)Nc2ccc(F)cn2)n1`, the melting point amounted to 194 °C. Consider `CCOC(=O)N1CCN(C(=O)/C=C/S(=O)(=O)c2ccccc2)CC1`, for which the melting point fell in the range of 116 to 117 °C.

The compound `COc1cc2cc(C(=O)C(C)CC#N)sc2cc1OC` (configuration not stated) registered a melting point of 148 to 150 °C. Then `CCOC(=O)c1cn(-c2ncnn2C)c2nc(Cl)c(F)cc2c1=O`, with 256 to 263 °C; and `CC(=O)Oc1ccccc1C(=O)Nc1ccc(-n2nc(C(F)(F)F)cc2C(F)(F)F)cc1`, with 159 to 161 °C. Then `COc1ccc(CN(C)CCCSc2ccc(NC(=O)c3cccc4c(=O)c5cccc(SC)c5[nH]c34)cc2)cc1OC`, with 142 °C; and `Cc1cccc(C)c1N1C(=O)CN(C(C)C)C1=S`, with 135 to 137 °C.

On to `COc1cc(OC)c(C(=O)CCCCCl)cc1NS(=O)(=O)c1ccc(C(F)(F)F)cc1`, for which the melting point lay in the range of 150 to 153 °C. `Cn1cc(C(O)c2ccncc2)cc1C(=O)c1ccc(Cl)cc1` (configuration not stated): the melting point fell in the range of 145 to 146 °C. Next, `Cc1c(O)cc2c(c1C)N(C=O)C(C)(C)C2`: 202 to 204 °C; `Cc1ccc(-c2ccc3c(c2)C=C(C(=O)NC2CCN(CC4=CCCCCCC4)CC2)CCO3)cc1`: 148 to 151 °C; `Cc1ccccc1P(=O)(Cc1ccc2ccccc2c1-c1c(CP(=O)(c2ccccc2C)c2ccccc2C)ccc2ccccc12)c1ccccc1C`: 231 to 234 °C. For `CC(=O)Nc1nc(OC(C)C)c2nc(Cl)ccc2n1`, the melting point stood at 244 °C. Next, `CCOC(=O)C(NC(=O)OC(C)(C)C)C(c1ccc(O)cc1)S(=O)(=O)C(F)(F)F` (configuration not stated): 47 to 49 °C; `O=C(O)c1cc2cc(OC(F)F)ccc2nc1C(=O)O`: 226 °C.
